{"source": "paper PMC10120551", "about": "“Novel Glu-based pyrazolo[3,4-d]pyrimidine analogues: design, synthesis and biological evaluation as DHFR and TS dual inhibitors” (Journal of Enzyme Inhibition and Medicinal Chemistry, 2023)", "key": {"Breast cancer subpanel": {"tested_on": "Breast cancer subpanel", "test": "NCI five-dose screen, subpanel MG-MID", "format": "cell-based, human", "description": "(§1) (Figures S53–S56 in Supporting Information). This assay evaluates GI50, TGI, and LC50 parameters, as cited in Table 1. Their values correspondingly represent the GI level, cytostatic impact, and cytotoxicity parameter. Furthermore, based on the GI50 values, the mean graph midpoints (MG-MID) for both full NCI 59 cell panel and subpanel cancer cell lines were evaluated, affording a median potency parameter for the examined compound 6i, as depicted in Table 2.\n(§2) Moreover, the selectivity index (SI) of the most efficient analogue 6i was calculated from the division of full-panel MG-MID by subpanel MG-MID. A value greater than 6 implies high selectivity, whereas a ratio from 3 to 6 denotes moderate selectivity. Otherwise, the compound is referred to as non-selective.[24] […] Therefore, the outstanding anti-cancer profile of compound 6i against the herein examined NCI-59 cell panels inspired us to explore its mechanism of action further.\n(§3) The designed analogues were submitted to NCI-Chemotherapeutic Agents Repository (MD, USA) for screening on a panel of 59 cancer cell lines. All compounds were initially examined at 10 µM concentration (Single-Dose Screen), and then the most efficient analogue 6i was screened further at 0.01–100 µM (Five-Dose Screen). The screening procedures were performed according to NCI-Drug Evaluation Branch protocol using SRB protein assay, as described previously[21]^,[66]. The experimental procedures were detailed in the Supporting Information."}, "Colon cancer subpanel": {"tested_on": "Colon cancer subpanel", "test": "NCI five-dose screen, subpanel MG-MID", "format": "cell-based, human", "description": "as §1, §2, §3"}, "Leukaemia subpanel": {"tested_on": "Leukaemia subpanel", "test": "NCI five-dose screen, subpanel MG-MID", "format": "cell-based, human", "description": "as §1, §2, §3"}, "Melanoma subpanel": {"tested_on": "Melanoma subpanel", "test": "NCI five-dose screen, subpanel MG-MID", "format": "cell-based, human", "description": "as §1, §2, §3"}, "[1]": {"tested_on": "Non-small cell lung cancer subpanel", "test": "NCI five-dose screen, subpanel MG-MID", "format": "cell-based, human", "description": "as §1, §2, §3"}, "Ovarian cancer subpanel": {"tested_on": "Ovarian cancer subpanel", "test": "NCI five-dose screen, subpanel MG-MID", "format": "cell-based, human", "description": "as §1, §2, §3"}, "Prostate cancer subpanel": {"tested_on": "Prostate cancer subpanel", "test": "NCI five-dose screen, subpanel MG-MID", "format": "cell-based, human", "description": "as §1, §2, §3"}, "Renal cancer subpanel": {"tested_on": "Renal cancer subpanel", "test": "NCI five-dose screen, subpanel MG-MID", "format": "cell-based, human", "description": "as §1, §2, §3"}, "COLO 205": {"tested_on": "COLO 205", "settings": "COLO 205, Colon cancer; five-dose 0.01–100 µM"}, "HCC-2998": {"tested_on": "HCC-2998", "settings": "HCC-2998, Colon cancer; five-dose 0.01–100 µM"}, "HCT-116": {"tested_on": "HCT-116", "settings": "HCT-116, Colon cancer; five-dose 0.01–100 µM"}, "SW-620 [2]": {"tested_on": "SW-620", "settings": "SW-620, Colon cancer; five-dose 0.01–100 µM"}, "KM12": {"tested_on": "KM12", "settings": "KM12, Colon cancer; five-dose 0.01–100 µM"}, "SNB-75": {"tested_on": "SNB-75", "settings": "SNB-75, CNS cancer; five-dose 0.01–100 µM"}, "U251": {"tested_on": "U251", "settings": "U251, CNS cancer; five-dose 0.01–100 µM"}, "SK-MEL-28": {"tested_on": "SK-MEL-28", "settings": "SK-MEL-28, Melanoma; five-dose 0.01–100 µM"}, "MOLT-4": {"tested_on": "MOLT-4", "test": "cells", "settings": "Homo sapiens"}, "A498": {"tested_on": "A498", "settings": "A498, Renal cancer; five-dose 0.01–100 µM"}, "MCF7": {"tested_on": "MCF7", "settings": "MCF7, Breast cancer; five-dose 0.01–100 µM"}, "BT-549": {"tested_on": "BT-549", "settings": "BT-549, Breast cancer; five-dose 0.01–100 µM"}, "HOP-92": {"tested_on": "HOP-92", "test": "cells", "settings": "Homo sapiens"}, "SW-620 [3]": {"tested_on": "SW-620", "test": "cells", "settings": "Homo sapiens"}, "SF-268": {"tested_on": "SF-268", "test": "cells", "settings": "Homo sapiens"}, "SF-295": {"tested_on": "SF-295", "test": "cells", "settings": "Homo sapiens"}, "SK-MEL-5": {"tested_on": "SK-MEL-5", "test": "cells", "settings": "Homo sapiens"}, "OVCAR-5": {"tested_on": "OVCAR-5", "test": "cells", "settings": "Homo sapiens"}, "786-0": {"tested_on": "786-0", "test": "cells", "settings": "Homo sapiens"}, "UO-31": {"tested_on": "UO-31", "test": "cells", "settings": "Homo sapiens"}, "TK-10": {"tested_on": "TK-10", "test": "cells", "settings": "Homo sapiens"}, "PC-3": {"tested_on": "PC-3", "test": "cells", "settings": "Homo sapiens"}}}
{"smiles": "CCOC(=O)CC[C@H](NC(=O)c1ccc(NC(=O)Cn2cnc3c(c(C)nn3-c3ccc(Br)cc3)c2=O)cc1)C(=O)OCC", "note": "[Compound 6i]", "values": [{"measurement": "MG-MID", "setting": "Breast cancer subpanel; Breast cancer subpanel, based on GI50", "value": 15.29, "unit": "µM"}, {"measurement": "Selectivity index", "setting": "Breast cancer subpanel; Breast cancer, full-panel MG-MID / subpanel MG-MID", "value": 1.33}, {"measurement": "MG-MID", "setting": "Colon cancer subpanel; Colon cancer subpanel, based on GI50", "value": 18.34, "unit": "µM"}, {"measurement": "Selectivity index", "setting": "Colon cancer subpanel; Colon cancer, full-panel MG-MID / subpanel MG-MID", "value": 1.11}, {"measurement": "MG-MID", "setting": "Leukaemia subpanel; Leukaemia subpanel, based on GI50", "value": 68.03, "unit": "µM"}, {"measurement": "Selectivity index", "setting": "Leukaemia subpanel; Leukaemia, full-panel MG-MID / subpanel MG-MID", "value": 0.30}, {"measurement": "MG-MID", "setting": "Melanoma subpanel; Melanoma subpanel, based on GI50", "value": 16.8, "unit": "µM"}, {"measurement": "Selectivity index", "setting": "Melanoma subpanel; Melanoma, full-panel MG-MID / subpanel MG-MID", "value": 1.21}, {"measurement": "MG-MID", "setting": "[1]; Non-small cell lung cancer subpanel, based on GI50", "value": 10.62, "unit": "µM"}, {"measurement": "Selectivity index", "setting": "[1]; Non-small cell lung cancer, full-panel MG-MID / subpanel MG-MID", "value": 1.92}, {"measurement": "MG-MID", "setting": "Ovarian cancer subpanel; Ovarian cancer subpanel, based on GI50", "value": 16.52, "unit": "µM"}, {"measurement": "Selectivity index", "setting": "Ovarian cancer subpanel; Ovarian cancer, full-panel MG-MID / subpanel MG-MID", "value": 1.23}, {"measurement": "MG-MID", "setting": "Prostate cancer subpanel; Prostate cancer subpanel, based on GI50", "value": 6.63, "unit": "µM"}, {"measurement": "Selectivity index", "setting": "Prostate cancer subpanel; Prostate cancer, full-panel MG-MID / subpanel MG-MID", "value": 3.08}, {"measurement": "MG-MID", "setting": "Renal cancer subpanel; Renal cancer subpanel, based on GI50", "value": 19.19, "unit": "µM"}, {"measurement": "Selectivity index", "setting": "Renal cancer subpanel; Renal cancer, full-panel MG-MID / subpanel MG-MID", "value": 1.06}, {"measurement": "TGI", "setting": "COLO 205", "value": 36.7, "unit": "µM"}, {"measurement": "TGI", "setting": "HCC-2998", "value": ">100", "unit": "µM"}, {"measurement": "TGI", "setting": "HCT-116", "value": ">100", "unit": "µM"}, {"measurement": "TGI", "setting": "SW-620 [2]", "value": 44.4, "unit": "µM"}, {"measurement": "TGI", "setting": "KM12", "value": ">100", "unit": "µM"}, {"measurement": "TGI", "setting": "SNB-75", "value": 40.9, "unit": "µM"}, {"measurement": "TGI", "setting": "U251", "value": ">100", "unit": "µM"}, {"measurement": "TGI", "setting": "SK-MEL-28", "value": 22.5, "unit": "µM"}, {"measurement": "GI50", "setting": "MOLT-4; MOLT-4", "value": "> 100", "unit": "µM"}, {"measurement": "CC50", "setting": "MOLT-4; MOLT-4, read-out: LC50", "value": "> 100", "unit": "µM"}, {"measurement": "TGI", "setting": "A498", "value": 48.1, "unit": "µM"}, {"measurement": "TGI", "setting": "MCF7", "value": 16.5, "unit": "µM"}, {"measurement": "TGI", "setting": "BT-549", "value": ">100", "unit": "µM"}, {"measurement": "GI50", "setting": "HOP-92; HOP-92", "value": 6.01, "unit": "µM"}, {"measurement": "CC50", "setting": "HOP-92; HOP-92, read-out: LC50", "value": 66.2, "unit": "µM"}, {"measurement": "GI50", "setting": "SW-620 [3]; SW-620", "value": 8.98, "unit": "µM"}, {"measurement": "CC50", "setting": "SW-620 [3]; SW-620, read-out: LC50", "value": "> 100", "unit": "µM"}, {"measurement": "GI50", "setting": "SF-268; SF-268", "value": 7.01, "unit": "µM"}, {"measurement": "CC50", "setting": "SF-268; SF-268, read-out: LC50", "value": "> 100", "unit": "µM"}, {"measurement": "GI50", "setting": "SF-295; SF-295", "value": 14.2, "unit": "µM"}, {"measurement": "CC50", "setting": "SF-295; SF-295, read-out: LC50", "value": 71.6, "unit": "µM"}, {"measurement": "GI50", "setting": "SK-MEL-5; SK-MEL-5", "value": 19.4, "unit": "µM"}, {"measurement": "CC50", "setting": "SK-MEL-5; SK-MEL-5, read-out: LC50", "value": 95.8, "unit": "µM"}, {"measurement": "GI50", "setting": "OVCAR-5; OVCAR-5", "value": 20.2, "unit": "µM"}, {"measurement": "CC50", "setting": "OVCAR-5; OVCAR-5, read-out: LC50", "value": "> 100", "unit": "µM"}, {"measurement": "GI50", "setting": "786-0; 786-0", "value": 8.66, "unit": "µM"}, {"measurement": "CC50", "setting": "786-0; 786-0, read-out: LC50", "value": "> 100", "unit": "µM"}, {"measurement": "GI50", "setting": "UO-31; UO-31", "value": 18.1, "unit": "µM"}, {"measurement": "CC50", "setting": "UO-31; UO-31, read-out: LC50", "value": "> 100", "unit": "µM"}, {"measurement": "GI50", "setting": "TK-10; TK-10", "value": 31.3, "unit": "µM"}, {"measurement": "CC50", "setting": "TK-10; TK-10, read-out: LC50", "value": "> 100", "unit": "µM"}, {"measurement": "GI50", "setting": "PC-3; PC-3", "value": 5.79, "unit": "µM"}, {"measurement": "CC50", "setting": "PC-3; PC-3, read-out: LC50", "value": 47.7, "unit": "µM"}]}
